The source of these data is patent US9695200B2, “Heterocyclic ITK inhibitors for treating inflammation and cancer” (Confluence Life Sciences, Inc., priority 2015, dated 2017).

The target in one assay is ITK (Homo sapiens (Human), UniProt Q08881). As to the kind of experiment: ITK inhibitor binding potency (LanthaScreen competitive binding assay). Conditions: TR-FRET tracer-236 displacement, 10 nM ITK; pre-incubation condition not given; read-out: ITK Inhibition IC50. The text has this:
The ability of candidate compounds to interact with ITK is quantitated by a competitive binding assay using the LanthaScreen technology developed by Life Technologies. This assay is based on the binding of a proprietary, Alexa Fluor® 647-labeled, ATP-competitive kinase inhibitor (kinase tracer-236) to the ITK expression construct in the presence of a Europium-conjugated antibody, resulting in a FRET (fluorescence resonance energy transfer) signal. Displacement of the kinase tracer by compound results in a lower emission ratio upon excitation of the Europium chelate. Candidate compounds are designed as potential irreversible inhibitors of ITK, capable of ligating to an active site cysteine residue resulting in time dependent covalent binding. The time dependent nature of irreversible inhibition is investigated by performing the binding assay with and without a pre-incubation of compound and ITK. […] The inhibitory potency of candidate compounds is measured in 20 mM HEPES pH 7.5, 10 mM MgCl2, 0.01% BSA, 0.0005% Tween-20, and 2% DMSO in the presence of 10 nM ITK, 2 nM Eu-anti-GST antibody, and 50 nM kinase tracer-236 using a 384-well plate format. Background signal is defined in the absence of ITK and uninhibited signal is defined in the presence of vehicle (2% DMSO) alone. Compounds were evaluated in an 11 point dose-response ranging from 20 uM to 0.34 nM. The binding assays are performed under two preincubation conditions to evaluate time dependence of inhibition. For the pre-incubation assay, ITK and Eu-anti-GST antibody are pre-incubated with compound or vehicle for two hours prior to the addition of kinase tracer. The non-preincubated assay is run under conditions where ITK and Eu-anti-GST antibody are added to a mixture of compound and kinase tracer. IC50 values of compounds are determined using a 4 parameter logistical fit of emission ratio as a function of the concentration of compound.
(In general: In TR-FRET formats the signal depends on donor and acceptor labels being close together.)

Assay [1] concerns phospho-PLCγ1 in Jurkat cells. As to the kind of experiment: ITK target modulation PLC-γ assay (phospho-PLCγ1, αCD3-stimulated Jurkat cells). Conditions: 1 hour compound incubation, αCD3 Dynabeads stimulation 8 minutes, MSD phospho-PLCγ1, read-out: PLC-γ Inhibition IC50. It is filed as cell-based, human.

Like-named read-outs stand apart in the source and are kept apart here.

ITK, sequence (Q08881 whole entry): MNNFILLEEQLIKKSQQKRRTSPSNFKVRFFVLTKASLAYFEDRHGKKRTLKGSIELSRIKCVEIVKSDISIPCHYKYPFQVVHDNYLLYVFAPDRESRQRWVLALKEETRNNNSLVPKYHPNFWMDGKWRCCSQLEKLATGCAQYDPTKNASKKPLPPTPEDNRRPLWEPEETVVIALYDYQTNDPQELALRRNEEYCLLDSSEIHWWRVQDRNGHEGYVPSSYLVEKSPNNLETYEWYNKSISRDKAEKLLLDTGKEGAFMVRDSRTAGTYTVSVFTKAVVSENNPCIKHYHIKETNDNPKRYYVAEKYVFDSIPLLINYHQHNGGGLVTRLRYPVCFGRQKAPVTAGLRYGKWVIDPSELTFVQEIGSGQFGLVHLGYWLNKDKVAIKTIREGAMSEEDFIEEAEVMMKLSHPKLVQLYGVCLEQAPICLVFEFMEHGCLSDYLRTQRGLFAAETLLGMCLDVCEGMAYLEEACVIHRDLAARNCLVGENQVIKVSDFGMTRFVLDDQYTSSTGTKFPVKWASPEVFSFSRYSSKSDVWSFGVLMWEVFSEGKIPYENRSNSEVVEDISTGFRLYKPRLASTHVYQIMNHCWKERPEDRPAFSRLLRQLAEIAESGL

Regarding `C=CC(=O)Nc1cc(-c2cnc3[nH]cc(-c4ccnc(OC)c4)c3c2)cc(N2CCOCC2)n1` [Example 41, N-(4-(3-(2-methoxypyridin-4-yl)-1H-pyrrolo[2,3-b]pyridin-5-yl)-6-morpholinopyri-din-2-yl)acrylamide], the IC50 was ≤ 1 µM at ITK and < 1 µM in assay [1] (Homo sapiens).
In the case of `CN(C)C/C=C/C(=O)Nc1cccc(-c2cnc3[nH]cc(-c4ccncc4)c3c2)c1` [Example 24, (E)-4-(dimethylamino)-N-(3-(3-(pyridin-4-yl)-1H-pyrrolo[2,3-b]pyridin-5-yl)phenyl)but-2-enamide], the IC50 is ≤ 1 µM at ITK and < 1 µM in assay [1] (Homo sapiens).
With `N#C/C(=C\c1cccc(-c2cnc3[nH]cc(-c4ccncc4)c3c2)c1)C(N)=O` [Example 8, (E)-2-Cyano-3-(3-(3-(pyridin-4-yl)-1H-pyrrolo[2,3-b]pyridin-5-yl)phenyl)acrylamide], the IC50 on ITK was ≤ 1 µM; in assay [1] (Homo sapiens), 1 to 5 µM.
As to `C=CC(=O)Nc1cccc(-c2cnc3[nH]cc(-c4cn(CC5CC5)c(=O)c5ccccc45)c3c2)c1` [Example 86, N-(3-(3-(2-(cyclopropyl-methyl)-1-oxo-1,2-dihydroisoquino-lin-4-yl)-1H-pyrrolo[2,3-b]pyridin-5-yl)phenyl)acryl-amide], the IC50 on ITK was > 1 µM; in assay [1] (Homo sapiens), > 5 µM.
In the same order, the values of `C=CC(=O)NC1CN(c2cnc3[nH]cc(-c4ccnc(F)c4)c3c2)C1` [Example 35, N-(1-(3-(2-fluoropyridin-4-yl)-1H-pyrrolo[2,3-b]pyridin-5-yl)azetidin-3-yl)acrylamide] are ≤ 1 µM and > 5 µM.
On to “N-(6-methoxy- 4-(3-(2- methoxypyridin- 4-yl)-1H- pyrrolo[2,3- b]pyridin-5- yl)pyridin-2- yl)methacryl- amide [Example 68]”, for which the IC50 at ITK is > 1 µM; in assay [1], > 5 µM.

What is called IC50 is the concentration that gives 50% inhibition.
